# Data from ChEMBL document CHEMBL5316381, “Discovery of [1,2,3]Triazolo[4,5-c]quinoline Derivatives as a New Class of Ataxia-Telangiectasia Mutated Kinase Inhibitors” (ACS Med Chem Lett, 2023).
# Activity calls are given as the source filed them. The calls are words filed in the database; no cut-off is given here.
# Legend:
# SW-620 [1] = assay: Radiosensitizing activity against human SW620 cells assessed as reduction in colony formation at 9 nM incubated after 14 days in the presence of 3 Gy irradiation by crystal violet staining based analysis; assay type: functional, cell-based; conditions: time 14.0 day
# [2] = molecular target: T1, Serine-protein kinase ATM (Homo sapiens, UniProt Q13315); assay: Inhibition of ATM (unknown origin) using GST-cMyc-p53 as substrate incubated for 30 mins in presence of Mg/ATP mix by HTRF-based analysis
# [3] = molecular target: PI3-kinase p110-alpha/p85-alpha (Homo sapiens, UniProt P42336); assay: Inhibition of human PI3K p110 alpha/p85 alpha using phosphatidylinositol-4, 5-bisphosphate as substrate incubated for 30 mins in the presence of Mg/ATP mix by HTRF-based analysis; assay type: protein-complex assay
# PI3K p110 beta/p85 alpha = PI3K p110 beta/p85 alpha (Homo sapiens, UniProt P42338); assay: Inhibition of human PI3K p110 beta/p85 alpha using phosphatidylinositol-4, 5-bisphosphate as substrate incubated for 30 mins in the presence of Mg/ATP mix by HTRF-based analysis; assay type: protein-complex assay
# [4] = molecular target: Phosphatidylinositol 4,5-bisphosphate 3-kinase catalytic subunit gamma isoform (Homo sapiens, UniProt P48736); assay: Inhibition of human PI3K p120 gamma using phosphatidylinositol-4, 5-bisphosphate as substrate incubated for 30 mins in the presence of Mg/ATP mix by HTRF-based analysis
# SW-620 [5] = assay: Radiosensitizing activity against human SW620 cells assessed as reduction in colony formation at 27 nM incubated after 14 days in the presence of 1.5 Gy irradiation by crystal violet staining based analysis; assay type: functional, cell-based; conditions: time 14.0 day
# SW-620 [6] = assay: Induction of apoptosis in human SW620 cells assessed as late apoptotic cells at 100 nM measured after 72 hrs in presence of CPT-11 by Annexin V-FITC staining based flow cytometric analysis (reference value: 5.75%); assay type: functional
# SW-620 [7] = assay: Induction of apoptosis in human SW620 cells assessed as necrotic cells at 100 nM measured after 72 hrs in presence of CPT-11 by Annexin V-FITC staining based flow cytometric analysis (reference value: 5.83%); assay type: functional
# SW-620 [8] = assay: Induction of apoptosis in human SW620 cells assessed as viable cells at 30 nM measured after 72 hrs in presence of CPT-11 by Annexin V-FITC staining based flow cytometric analysis (reference value: 87.36%); assay type: functional; conditions: read-out: Activity
# SW-620 [9] = assay: Induction of apoptosis in human SW620 cells assessed as viable cells at 10 nM measured after 72 hrs in presence of CPT-11 by Annexin V-FITC staining based flow cytometric analysis (reference value: 87.36%); assay type: functional; conditions: read-out: Activity
# SW-620 [10] = assay: Induction of apoptosis in human SW620 cells assessed as late apoptotic cells at 10 nM measured after 72 hrs in presence of CPT-11 by Annexin V-FITC staining based flow cytometric analysis (reference value: 5.75%); assay type: functional
# SW-620 [11] = assay: Induction of apoptosis in human SW620 cells assessed as early apoptotic cells at 100 nM measured after 72 hrs by Annexin V-FITC staining based flow cytometric analysis (reference value: 1.06%); assay type: functional
# SW-620 [12] = assay: Induction of apoptosis in human SW620 cells assessed as late apoptotic cells at 100 nM measured after 72 hrs by Annexin V-FITC staining based flow cytometric analysis (reference value: 5.75%); assay type: functional
# HCT-116 [13] = assay: Induction of apoptosis in human HCT-116 cells assessed as viable cells at 1 uM measured after 72 hrs by Annexin V-FITC staining based flow cytometric analysis (reference value: 73.74%); assay type: functional; conditions: read-out: Activity
# HCT-116 [14] = assay: Induction of apoptosis in human HCT-116 cells assessed as viable cells at 30 nM measured after 72 hrs in presence of CPT-11 by Annexin V-FITC staining based flow cytometric analysis (reference value: 73.74%); assay type: functional; conditions: read-out: Activity
# HCT-116 [15] = assay: Induction of apoptosis in human HCT-116 cells assessed as early apoptotic cells at 30 nM measured after 72 hrs in presence of CPT-11 by Annexin V-FITC staining based flow cytometric analysis (reference value: 4.06%); assay type: functional
# HCT-116 [16] = assay: Induction of apoptosis in human HCT-116 cells assessed as viable cells at 10 nM measured after 72 hrs in presence of CPT-11 by Annexin V-FITC staining based flow cytometric analysis (reference value: 73.74%); assay type: functional; conditions: read-out: Activity
# HCT-116 [17] = assay: Induction of apoptosis in human HCT-116 cells assessed as early apoptotic cells at 10 nM measured after 72 hrs in presence of CPT-11 by Annexin V-FITC staining based flow cytometric analysis (reference value: 4.06%); assay type: functional
# HCT-116 [18] = assay: Induction of apoptosis in human HCT-116 cells assessed as late apoptotic cells at 10 nM measured after 72 hrs in presence of CPT-11 by Annexin V-FITC staining based flow cytometric analysis (reference value: 19.80%); assay type: functional
# HCT-116 [19] = assay: Induction of apoptosis in human HCT-116 cells assessed as necrotic cells at 10 nM measured after 72 hrs in presence of CPT-11 by Annexin V-FITC staining based flow cytometric analysis (reference value: 2.41%); assay type: functional
# HCT-116 [20] = assay: Induction of apoptosis in human HCT-116 cells assessed as viable cells at 100 nM measured after 72 hrs by Annexin V-FITC staining based flow cytometric analysis (reference value: 73.74%); assay type: functional; conditions: read-out: Activity
# HCT-116 [21] = assay: Induction of apoptosis in human HCT-116 cells assessed as late apoptotic cells at 100 nM measured after 72 hrs by Annexin V-FITC staining based flow cytometric analysis (reference value: 19.80%); assay type: functional
# [22] = molecular target: T1, Serine-protein kinase ATM; assay: Inhibition of ATM in human SW620 cells assessed as increase in gamma H2AX foci at 250 nM incubated for 24 hrs by confocal microscopic analysis; assay type: cell-based
# [23] = molecular target: Serine/threonine-protein kinase Chk2 (Homo sapiens) (UniProt O96017); assay: Inhibition of Chk2 phosphorylation in human SW620 cells with IR-induced DNA damage in the presence of 1.5 Gy irradiation by Western blot analysis; assay type: cell-based; conditions: dose 3-250 nM
# [24] = molecular target: Serine/threonine-protein kinase Chk2 (Homo sapiens) (UniProt O96017); assay: Inhibition of Chk2 phosphorylation in human SW620 cells with IR-induced DNA damage in the presence of 3 Gy irradiation by Western blot analysis; assay type: cell-based; conditions: dose 3-250 nM
# [25] = Toxicity in BALB/c mouse xenografted with human SW620 cells assessed as liver damage at 5 mg/kg, ip administered once daily and measured after 23 days by H&E staining based microscopic analysis; assay type: organism-based, SW-620; conditions: in vivo, 552 h, time 23 day
# SW-620 [26] = assay: In vivo inhibition of ATM in BALB/c mouse model xenografted with human SW620 cells assessed as inhibition of ATM phosphorylation at 5 mg/kg, ip administered once daily and measured after 23 days in the presence of CPT-11 by Western blot analysis; assay type: functional, organism-based; conditions: time 23.0 day
# SW-620 [27] = assay: Anticancer activity against human SW620 cells assessed as reduction in cell viability by measuring fold change in CPT-11 IC50 at 100 nM incubated for 5 days by MTT assay relative irinotecan alone; assay type: functional; conditions: time 5 day
# [28] = molecular target: T1, Serine-protein kinase ATM; assay: Inhibition of ATM in human SW620 cells assessed as increase in gamma H2AX foci accumulation at 50 to 250 nM incubated for 24 hrs in the presence of CPT-11 by confocal microscopic analysis; assay type: cell-based; conditions: dose 50-250 nM
# T1 sequence (Q13315 whole entry): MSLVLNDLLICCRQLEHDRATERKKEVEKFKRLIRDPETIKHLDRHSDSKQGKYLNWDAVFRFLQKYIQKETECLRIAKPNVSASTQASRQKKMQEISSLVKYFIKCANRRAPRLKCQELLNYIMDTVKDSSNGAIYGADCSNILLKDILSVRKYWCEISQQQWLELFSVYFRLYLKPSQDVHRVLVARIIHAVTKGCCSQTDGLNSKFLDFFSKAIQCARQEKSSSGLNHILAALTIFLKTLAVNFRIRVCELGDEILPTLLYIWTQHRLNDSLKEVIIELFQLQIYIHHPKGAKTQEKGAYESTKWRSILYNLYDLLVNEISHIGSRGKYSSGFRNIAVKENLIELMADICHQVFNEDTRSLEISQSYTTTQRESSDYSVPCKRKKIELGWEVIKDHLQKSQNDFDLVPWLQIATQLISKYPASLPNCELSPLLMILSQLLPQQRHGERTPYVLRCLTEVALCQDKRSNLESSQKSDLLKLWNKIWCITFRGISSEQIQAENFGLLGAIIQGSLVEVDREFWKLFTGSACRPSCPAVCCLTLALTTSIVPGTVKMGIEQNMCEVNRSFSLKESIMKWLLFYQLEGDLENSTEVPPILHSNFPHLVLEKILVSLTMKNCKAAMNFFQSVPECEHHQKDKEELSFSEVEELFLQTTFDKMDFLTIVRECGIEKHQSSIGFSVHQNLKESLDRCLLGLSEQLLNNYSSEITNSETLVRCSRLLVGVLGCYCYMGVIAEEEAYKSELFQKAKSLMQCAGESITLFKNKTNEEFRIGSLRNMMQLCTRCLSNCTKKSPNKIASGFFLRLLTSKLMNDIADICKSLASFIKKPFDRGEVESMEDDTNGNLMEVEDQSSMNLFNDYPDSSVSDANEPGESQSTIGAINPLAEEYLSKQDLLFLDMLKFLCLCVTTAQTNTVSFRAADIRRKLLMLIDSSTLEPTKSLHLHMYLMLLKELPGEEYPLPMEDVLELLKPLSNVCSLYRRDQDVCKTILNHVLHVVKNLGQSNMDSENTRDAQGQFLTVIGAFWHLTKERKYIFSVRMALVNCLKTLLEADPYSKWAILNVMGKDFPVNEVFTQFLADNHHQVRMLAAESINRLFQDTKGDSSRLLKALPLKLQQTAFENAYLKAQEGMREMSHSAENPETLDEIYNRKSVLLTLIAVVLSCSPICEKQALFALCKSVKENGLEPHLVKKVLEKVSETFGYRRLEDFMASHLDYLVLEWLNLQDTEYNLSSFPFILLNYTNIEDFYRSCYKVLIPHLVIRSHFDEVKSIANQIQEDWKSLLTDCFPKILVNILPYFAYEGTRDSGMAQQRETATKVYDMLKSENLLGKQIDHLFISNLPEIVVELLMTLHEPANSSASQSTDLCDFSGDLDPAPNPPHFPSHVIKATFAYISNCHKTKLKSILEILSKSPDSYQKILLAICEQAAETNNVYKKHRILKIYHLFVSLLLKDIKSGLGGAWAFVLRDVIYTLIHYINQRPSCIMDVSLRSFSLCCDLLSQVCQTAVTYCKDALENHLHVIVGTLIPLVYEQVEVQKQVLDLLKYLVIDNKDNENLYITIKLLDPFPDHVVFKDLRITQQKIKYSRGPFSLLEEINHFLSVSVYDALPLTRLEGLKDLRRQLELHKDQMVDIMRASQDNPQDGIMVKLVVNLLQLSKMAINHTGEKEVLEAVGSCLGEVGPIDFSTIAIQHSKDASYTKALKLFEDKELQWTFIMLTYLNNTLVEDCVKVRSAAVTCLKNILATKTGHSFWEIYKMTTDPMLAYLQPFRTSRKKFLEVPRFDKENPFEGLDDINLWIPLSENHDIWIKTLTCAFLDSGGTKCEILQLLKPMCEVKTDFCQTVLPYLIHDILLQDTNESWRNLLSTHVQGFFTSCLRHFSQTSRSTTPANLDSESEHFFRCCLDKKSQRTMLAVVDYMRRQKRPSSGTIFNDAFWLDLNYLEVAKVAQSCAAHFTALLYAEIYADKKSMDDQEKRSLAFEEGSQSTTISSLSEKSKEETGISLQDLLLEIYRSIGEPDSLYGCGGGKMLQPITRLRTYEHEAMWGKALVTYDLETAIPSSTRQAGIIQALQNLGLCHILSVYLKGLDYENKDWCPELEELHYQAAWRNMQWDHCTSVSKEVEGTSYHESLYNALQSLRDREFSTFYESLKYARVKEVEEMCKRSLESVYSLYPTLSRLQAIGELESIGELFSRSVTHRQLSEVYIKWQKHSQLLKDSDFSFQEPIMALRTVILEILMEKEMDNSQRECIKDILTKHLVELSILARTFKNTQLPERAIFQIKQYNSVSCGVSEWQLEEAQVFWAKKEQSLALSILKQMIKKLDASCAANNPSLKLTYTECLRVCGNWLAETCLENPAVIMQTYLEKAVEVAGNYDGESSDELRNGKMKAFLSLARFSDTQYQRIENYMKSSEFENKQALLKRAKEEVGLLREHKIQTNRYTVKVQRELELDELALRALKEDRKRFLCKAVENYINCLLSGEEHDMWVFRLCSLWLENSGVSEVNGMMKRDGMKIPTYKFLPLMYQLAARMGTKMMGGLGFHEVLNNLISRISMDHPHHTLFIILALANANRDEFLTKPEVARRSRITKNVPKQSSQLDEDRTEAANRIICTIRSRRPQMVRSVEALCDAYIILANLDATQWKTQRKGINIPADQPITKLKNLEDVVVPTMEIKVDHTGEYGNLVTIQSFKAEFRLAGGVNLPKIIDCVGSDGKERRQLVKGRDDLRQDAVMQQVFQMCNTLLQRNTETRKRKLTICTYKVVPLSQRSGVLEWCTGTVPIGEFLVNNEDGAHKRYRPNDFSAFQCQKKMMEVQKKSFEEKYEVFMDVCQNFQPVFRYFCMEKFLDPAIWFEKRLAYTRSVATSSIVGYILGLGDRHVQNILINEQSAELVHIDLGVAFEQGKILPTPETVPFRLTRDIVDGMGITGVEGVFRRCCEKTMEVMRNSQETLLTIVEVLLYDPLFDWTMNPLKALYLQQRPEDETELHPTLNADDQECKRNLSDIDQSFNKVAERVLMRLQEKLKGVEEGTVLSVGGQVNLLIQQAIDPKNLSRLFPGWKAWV
# Serine/threonine-protein kinase Chk2 (Homo sapiens), sequence (O96017 whole entry): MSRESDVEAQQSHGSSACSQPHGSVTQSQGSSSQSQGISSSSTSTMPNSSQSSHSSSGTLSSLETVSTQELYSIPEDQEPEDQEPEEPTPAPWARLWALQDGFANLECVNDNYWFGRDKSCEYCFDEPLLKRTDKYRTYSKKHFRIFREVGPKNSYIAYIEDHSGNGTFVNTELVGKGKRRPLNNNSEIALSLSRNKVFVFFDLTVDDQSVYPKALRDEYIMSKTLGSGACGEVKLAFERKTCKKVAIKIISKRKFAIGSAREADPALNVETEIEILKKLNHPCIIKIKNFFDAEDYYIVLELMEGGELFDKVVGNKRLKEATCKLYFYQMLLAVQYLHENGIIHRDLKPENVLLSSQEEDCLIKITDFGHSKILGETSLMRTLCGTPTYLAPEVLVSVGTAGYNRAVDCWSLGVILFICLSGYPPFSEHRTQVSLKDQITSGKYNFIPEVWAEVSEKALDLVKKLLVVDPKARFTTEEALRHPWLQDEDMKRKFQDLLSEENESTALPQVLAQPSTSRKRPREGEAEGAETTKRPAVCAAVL
# Phosphatidylinositol 4,5-bisphosphate 3-kinase catalytic subunit gamma isoform, sequence (P48736 whole entry, canonical isoform): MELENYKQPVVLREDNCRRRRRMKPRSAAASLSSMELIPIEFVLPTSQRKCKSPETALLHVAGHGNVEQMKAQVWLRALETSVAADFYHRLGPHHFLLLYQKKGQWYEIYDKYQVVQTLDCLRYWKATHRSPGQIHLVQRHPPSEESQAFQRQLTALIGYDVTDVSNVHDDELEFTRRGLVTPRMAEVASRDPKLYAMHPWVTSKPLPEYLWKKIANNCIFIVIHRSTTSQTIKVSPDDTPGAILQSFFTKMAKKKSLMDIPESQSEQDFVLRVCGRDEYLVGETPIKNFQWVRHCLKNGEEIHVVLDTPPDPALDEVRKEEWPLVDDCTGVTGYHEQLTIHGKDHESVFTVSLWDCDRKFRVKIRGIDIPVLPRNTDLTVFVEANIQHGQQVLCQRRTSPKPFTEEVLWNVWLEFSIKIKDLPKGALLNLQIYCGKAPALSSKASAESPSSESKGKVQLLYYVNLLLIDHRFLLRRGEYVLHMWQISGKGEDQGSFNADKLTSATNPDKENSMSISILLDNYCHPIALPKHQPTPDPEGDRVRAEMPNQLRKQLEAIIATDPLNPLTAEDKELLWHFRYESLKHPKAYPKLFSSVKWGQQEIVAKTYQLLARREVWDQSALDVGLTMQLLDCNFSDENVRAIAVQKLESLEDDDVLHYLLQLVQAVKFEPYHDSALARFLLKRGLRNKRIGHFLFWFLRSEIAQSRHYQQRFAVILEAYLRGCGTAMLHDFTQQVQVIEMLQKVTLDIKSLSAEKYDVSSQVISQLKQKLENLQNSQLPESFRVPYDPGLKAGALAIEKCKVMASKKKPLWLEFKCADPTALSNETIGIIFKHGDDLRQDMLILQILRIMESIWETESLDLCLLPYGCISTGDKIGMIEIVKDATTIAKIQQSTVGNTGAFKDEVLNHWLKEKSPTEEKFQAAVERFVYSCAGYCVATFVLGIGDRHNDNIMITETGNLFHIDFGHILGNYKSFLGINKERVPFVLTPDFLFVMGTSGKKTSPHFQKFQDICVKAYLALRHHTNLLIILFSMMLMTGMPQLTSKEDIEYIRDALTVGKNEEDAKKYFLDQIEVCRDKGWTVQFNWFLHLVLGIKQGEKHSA
compound,measurement,setting,value
C[C@H](c1ccccc1)n1nnc2cnc3ccc(-c4ccc(OCCCN(C)C)nc4)cc3c21,Activity,SW-620 [1],Active
same,IC50,[2],1 nM
same,IC50,[3],> 10 µM
same,IC50,PI3K p110 beta/p85 alpha,1850 nM
same,IC50,[4],> 10 µM
same,Activity,SW-620 [5],Active
same,Activity,SW-620 [6],60.69%
same,Activity,SW-620 [7],1.63%
same,viability at 0.03 µM,SW-620 [8],47.2%
same,viability at 0.01 µM,SW-620 [9],64.1%
same,Activity,SW-620 [10],27.19%
same,Activity,SW-620 [11],1.88%
same,Activity,SW-620 [12],11.57%
same,viability at 1 µM,HCT-116 [13],62.1%
same,viability at 0.03 µM,HCT-116 [14],25.7%
same,Activity,HCT-116 [15],2.23%
same,viability at 0.01 µM,HCT-116 [16],55.8%
same,Activity,HCT-116 [17],1.1%
same,Activity,HCT-116 [18],34.21%
same,Activity,HCT-116 [19],8.88%
same,viability at 0.1 µM,HCT-116 [20],75.3%
same,Activity,HCT-116 [21],14.21%
same,inhibition,[22],Active
same,inhibition,[23],Dose-Dependent Effect
same,inhibition,[24],Dose-Dependent Effect
same,Activity,[25],Non-Toxic
same,inhibition,SW-620 [26],Active
same,fold change (FC),SW-620 [27],4.4
same,inhibition,[28],Active
